The source of these data is US5141947A, “Fibrinolysis-enhancing agents” (Mitsubishi Kasei Corporation, priority 1984, dated 1992).

The structures appear in SMILES notation.

The test system of data set [1] is fibrinolysis of plasma by t-PA (tissue plasminogen activator). Briefly: fibrinolysis of plasma aggregation effected by t-PA; 0.15 ml plasma in 0.7 ml total (Examples 2 and 3). The format is biochemical, healthy person (human). On the procedure: (§1) One part by volume of 3.8% sodium citrate solution was added to 9 parts by volume of the venous blood of a healthy person and centrifuged at 3,000 rpm for 15 minutes to collect the plasma.
(§2) There was placed 0.6 ml of the plasma into a spectrophotometric microcell having a path length of 10 mm and a path width of 2 mm. After adding 0.015 ml of physiological saline containing the compound (Ia) in various concentrations, the cell was held in the cell holder of a spectrophotometer, Hitachi 220 A, which was maintained at 37° C. and incubated for 5 minutes. Into the cell, there was added 0.025 ml of a solution of 8.0 μg/ml t-PA (tissue plasminogen activator) or 3,000 international units per ml high molecular weight UK, urokinase manufactured by The Green Cross Corporation, and […] CaCl2 solution. Changes in the absorbance at 608 nm were recorded at 37° C. every one minute. Thus, the coagulation and fibrinolysis of the plasma were measured with the time lapse.
(§3) The coagulation time is defined as a time period from the time 0 at which CaCl2 solution is added to a coagulation initiation time at which the absorbance has increased to a value larger by 0.025 than the value at the time 0: i.e., delta A is 0.025. The dissolution time is defined as a time period from the coagulation initiation time to a fibrinolysis termination time at which the absorbance has decreased to a value 10% that of the maximum value.
(§4) The procedures of Example 1 were repeated except that a less amount cf plasma was used. Thus, in the same manner as Example 1, there was collected 0.15 ml of plasma to which 0.1 ml of physiological saline containing the compound (Ia) in various concentrations was added, the total volume was adjusted to 0.375 ml, the resulting mixture was incubated at 37° C. for 5 minutes, 0.025 ml of a solution of 1.6 μg/ml t-PA or 500 international units per ml high molecular weight UK and 0.3 ml of 0.025M CaCl2 solution were added, and the coagulation and fibrinolysis of the plasma were measured with the time lapse to determine the coagulation time and dissolution time.
Activities of arginine derivatives having the thrombin-inhibiting effect and the structural formula shown below on the fibrinolysis by t-PA were estimated in the same manner as Example 2.

A short description of data set [2]: acute toxicity, LD50, intravenous, male mice. Particulars: mouse, in vivo, male mice weighing 20 g. On the procedure: The arginine derivative of the formula (Ia) above was prepared in accordance with Example 2 described in the European Patent Application Publication No. 8746.
The test system of data set [3] is fibrinolysis of plasma by UK (urokinase). Put plainly: fibrinolysis of plasma aggregation effected by UK; 0.6 ml plasma in 0.7 ml total (Example 1). The format is biochemical, healthy person (human). The settings on record: for Coagulation Time / Dissolution Time: n=5, average ± S.E.M. On the procedure: as §1, §2
(§5) In the FIGURE, the ordinate represents the difference of absorbance (ΔA) at 608 nm and the abscissa represents the time in minutes.
(§6) The effects of the compound (Ia) on the dissolution time and the coagulation time were measured on the plasma from five healthy persons. […] Values in Tables are expressed in the average+S.E.M.
as §3

Data set [4] relates to fibrinolysis of plasma by t-PA (tissue plasminogen activator). Briefly: fibrinolysis of plasma aggregation effected by t-PA; 0.6 ml plasma in 0.7 ml total (Example 1). The data set is classed as biochemical, healthy person (human). Particulars: for Coagulation Time / Dissolution Time: n=5, average ± S.E.M. The protocol: as §1, §2, §5, §6, §3
The subject of data set [5] is fibrinolysis of plasma by UK (urokinase). Briefly: fibrinolysis of plasma aggregation effected by UK; 0.15 ml plasma in 0.7 ml total (Example 2). The format is biochemical, healthy person (human). On the procedure:
as §1, §2, §3, §4

Data set [6] concerns thrombus in carotid artery of rabbit. Briefly: in vivo thrombolysis by t-PA, rabbit carotid artery thrombus (Example 4). The settings on record: Compound (Ia) 1.2 mg/kg alone. The protocol: The carotid artery of a rabbit was exposed from the surrounding tissue under anesthesia by pentobarbital. The exposed artery was surrounded with absorbent cotton soaked with glacial acetic acid and allowed to stay for 3 hours to form thrombus by the damage done to the endorthelium. The thus formed thrombus was tested for dissolution. Immediately after removing out the cotton, physiological saline in which the substance to be tested had been dissolved was injected through the femoral vein. The infusion was continued over 2 hours. After the infusion, the arterial segment wherein the thrombus had been formed was cut out and the thrombus mass was removed out under a microscope. The thrombus was dissolved in alkali and the protein was quantitatively measured by phenol method.

Where [7] appears, read: Table 5, 0.3 μM, control 2.9 min.
Setting [8] is: Table 5, 0.3 μM, control 95.7 min.

As for `COCCN(CC(=O)O)C(=O)[C@H](CCCNC(=N)N)NS(=O)(=O)c1ccc2cc(OC)c(OC)cc2c1` [Compound 1], in data set [1] (setting [7]), the “Coagulation Time” value was determined as 3.2 min. Moreover, the “Dissolution Time” value in data set [1] (setting [8]) turned out to be 55.4 min.
As to `COc1ccc2ccc(S(=O)(=O)N[C@@H](CCCNC(=N)N)C(=O)N3CCC(C)CC3C(=O)O)cc2c1` (stereo partly shown) [Compound 2], in data set [1] (setting [7]), the “Coagulation Time” value is listed as 4.1 min. For the same molecule, the “Dissolution Time” value in data set [1] (setting [8]) is 36.5 min.
Regarding `CCC1CCN(C(=O)[C@H](CCCNC(=N)N)NS(=O)(=O)c2ccc3cc(OC)c(OC)cc3c2)C(C(=O)O)C1` (stereo partly shown) [Compound 3], in data set [1] (setting [7]), the “Coagulation Time” value turned out to be 3.2 min. Besides, in data set [1] (setting [8]), the “Dissolution Time” value was 53.4 min.
As to `Cc1ccc2ccc(S(=O)(=O)N[C@@H](CCCNC(=N)N)C(=O)N3CCC(C)CC3C(=O)O)cc2c1` (stereo partly shown) [Compound 4], the “Coagulation Time” value in data set [1] (setting [7]) came out at 3.1 min. For the same molecule, the “Dissolution Time” value in data set [1] (setting [8]) is recorded as 50.5 min.
Turning to `CC1CNc2c(cccc2S(=O)(=O)N[C@@H](CCCNC(=N)N)C(=O)N2CC[C@@H](C)C[C@@H]2C(=O)O)C1` (stereo partly drawn) [Compound (Ia), (2R, 4R)-1-[N^2-(3-methyl-1,2,3,4-tetrahydro-8-quinolinesulfonyl)-L-arginyl]-4-methyl-2-piperidinecarboxylic acid], the LD50 in data set [2] came to 211 mg/kg. Moreover, the “dissolution time, in comparison with no addition” value in data set [3] (0.1 μM or 0.3 μM) and in data set [4] (0.1 μM or 0.3 μM) was “significantly reduced” throughout. Besides, the “Coagulation Time” value in data set [3] (0.1 μM) is listed as 8.8 ± 1.1 min; in data set [3] (0.3 μM), 10.2 ± 1.4 min; in data set [4] (0.1 μM) it was 10.6 ± 2.0 min; in data set [4] (0.3 μM) it was 13.8 ± 2.8 min; in data set [5] (0.01 μM), “prolonged slightly”; in data set [5] (0.01 μM, n=5) it was 4.9 ± 0.6 min. The “Coagulation Time” value in data set [5] (0.03 μM, n=5) is on record as 5.5 ± 0.4 min; in data set [5] (0.1 μM, n=5), 7.4 ± 0.8 min; in data set [5] (0.3 μM, n=5), 9.9 ± 0.8 min; in data set [1] (0.01 μM), “prolonged slightly”; in data set [1] (0.01 μM, n=5) it was 4.5 ± 0.2 min; in data set [1] (0.03 μM, n=5), 5.0 ± 0.2 min. Moreover, the “Coagulation Time” value in data set [1] (0.1 μM, n=5) is 6.7 ± 0.3 min; in data set [1] (0.3 μM, n=5), 9.0 ± 0.3 min. In addition, the “Dissolution Time” value in data set [3] (0.1 μM) is recorded as 28.2 ± 5.2 min; in data set [3] (0.3 μM), 24.6 ± 4.3 min; in data set [4] (0.1 μM), 33.0 ± 2.0 min; in data set [4] (0.3 μM) it was 32.0 ± 2.8 min; in data set [5] (0.01 μM, n=5), 63.8 ± 11.8 min; in data set [5] (0.03 μM, n=5) it was 35.9 ± 5.7 min. Further, the “Dissolution Time” value in data set [5] (0.1 μM, n=5) stood at 23.4 ± 2.2 min; in data set [5] (0.3 μM, n=5) it was 22.5 ± 1.3 min; in data set [1] (0.01 μM, n=5) it was 64.1 ± 10.2 min; in data set [1] (0.03 μM, n=5), 51.6 ± 7.7 min; in data set [1] (0.1 μM, n=5), 34.5 ± 5.2 min; in data set [1] (0.3 μM, n=5), 26.6 ± 2.4 min. The entries for the “dissolution time decreased to fraction of the time without addition” value in data set [5] (0.3 μM) and in data set [1] (0.3 μM) were “about 1/4” and “about 1/3”, respectively. Further, the fibrinolysis entry in data set [5] (as low as 0.01 μM) and in data set [1] (as low as 0.01 μM) was “enhanced” throughout. Further, in data set [6], the thrombolytic effect result is “no thrombolytic effect”. Besides, in data set [6] (2 h infusion, femoral vein, n=4, saline control 1.97 ± 0.38), the “Thrombus Protein” value is recorded as 2.03 ± 0.55 mg.
